The subject of one experiment is TNF-alpha production. Kind of experiment: TNF-alpha production from LPS-stimulated human PBMC. It is filed as cell-based. The settings on record: LPS 5×10^−5 μg/ml, 100,000 PBMC, 24 h, ELISA. As to the method:
Bacterial lipopolysaccharide (LPS) stimulates the production of a variety of cytokines, including TNF-alpha, from human PBMC; these cytokines in turn influence the development of T cells, supporting a T helper 1 conducive milieu. Human PBMC prepared from whole blood by buoyant density centrifugation were resuspended in CTCM. HSL compounds were again tested at similar dilutions as for murine splenocytes in 200 μl of CTCM, containing 5×10^−5 μg/ml LPS Escherichia coli strain 055:B5 (Sigma, Poole, UK) and 100,000 PBMC. Following incubation for 24 h at 37° C. in 5% CO2-air, the cell culture supernatants were collected and tested for TNF-alpha levels by ‘sandwich’ ELISA. Briefly, 96-well Nunc MaxiSorp (Life Technologies, Paisley, UK) plates were coated with 50 μl of a 2 μg/ml solution of mouse anti-human TNF-alpha monoclonal antibody (Pharmingen, UK) in 0.05 M carbonate/bicarbonate buffer, pH 9.6 overnight at 4° C. After washing the plates three times with PBS-Tween, which contained phosphate buffered saline (PBS) with 0.5% (vol/vol) Tween 20 (Sigma, Poole, UK), the plates were blocked with 1% (wt/vol) bovine serum albumin (BSA) (Sigma, Poole, UK) at room temperature for 2 h. […] Following four washes, the bound biotinylated antibody was detected with 50 μl of a 1:1,000 dilution of Streptavidin-peroxidase (Pharmingen, UK). […] The enzyme reaction was stopped with 50 μl of 2.5 M H2SO4 after an incubation of 10 minutes at room temperature and the development was read at 450 nm with a spectrophotometric 96-well plate reader (Dynex). […]
Similar studies were carried out using, as the HSL compounds, N-(12-bromo-3-oxododecanoyl)-L-homoserine lactone (12BrOdDHL) and N-(12-hydroxy-3-oxododecanoyl)-L-homoserine lactone (12hydroxyOdDHL) and the plots for these are shown in FIG. 9. […] The IC50 value for dexamethasone was determined to be 500.
(§1) In the cell culture assays the number of cells used (mouse splenocytes and human PBMC) was initially optimised to 100,000 cells per well. The optimal dose of ConA of 1 μg/ml used in the cell proliferation assays was determined from ConA titration curves. […]

The subject of the next experiment is diabetes in NOD mice. Kind of experiment: Alleviation of diabetes in NOD mice (incidence of diabetes, Uristix). The settings on record: above 6 mMol glucose/l = diabetes. It is filed as in vivo. As to the method:
The ability of the lead compound (OdDHL) to alleviate diabetes in NOD mice was determined by treating the mice 3 times per week for 4 weeks at 30 mg/kg as above. DMSO and OHHL were used as controls.
Diabetes was diagnosed using Uristix and a level of above 6 mMol glucose/I was taken to indicate the presence of diabetes.

The next experiment relates to murine splenocytes. Kind of experiment: ConA mitogen-stimulated proliferation of murine splenocytes. It is filed as cell-based, BALB/c mice. The settings on record: ConA 1 μg/ml, 100,000 spleen cells, 1 mM to 0.1 μM. As to the method: The concanavalin A (ConA) cell proliferation assay was used to assess the effect of homoserine lactone (HSL) compounds on T-cell activation and proliferation. Proliferation was assessed by the incorporation of [^3H]-thymidine into DNA. Eight-week-old female BALB/c mice were obtained from Harlan (Bicester, Oxon, UK) and given food and water ad libitum. Splenocyte suspensions were prepared by removing the spleens and placing them into. RPMI 1640 medium. The spleens were forced through 70-μm-pore-size wire gauzes using the plunger from a 5-ml syringe to produce a single cell suspension. The cells were pelleted by centrifugation, and erythrocytes were lysed with 0.017M Tris, 0.144M ammonium chloride buffer, pH 7.2. Leucocytes were washed twice with RPMI 1640 medium with 2% (vol/vol) foetal calf serum (FCS) and resuspended in complete cell culture medium (CTCM) consisting of RPMI 1640 medium with 5% FCS, 2 mM L-glutamine, and 5×10^−5 M 2-mercaptoethanol. […] After the addition of 25 μl of MicroScint-O (Packard) to each well the filters were counted with the Packard TopCount scintillation counter. […]
as §1

As for `CCCCCCCCCC(=O)CC(=O)N[C@H]1CCOC1=O` [OdDHL, N-(3-oxododecanoyl)-L-homoserine Lactone], the “inhibition of TNF-α secretion (FIG. 8)” value in the experiment with TNF-alpha production is “inhibited the secretion”. In addition, the incidence of diabetes is reported as 0/11 with diabetes in NOD mice (Week of Experiment 20, 30 mg/kg 3 times per week for 4 weeks) and 5/20 with diabetes in NOD mice (Week of Experiment 30, 30 mg/kg 3 times per week for 4 weeks, week 30 of experiment). The “inhibition of splenocyte proliferation ([3H]-thymidine cpm, FIG. 6)” value with murine splenocytes is “inhibits splenocyte proliferation”.

The record behind these values is patent publication US20050014751A1, “Use of n-acyl homoserine lactones for the treatment of insulitis” (priority 2001, published 2005).
